Test results: patent US20250185657A1, “PEST CONTROLLING AGENT” (priority 2022, published 2025)

Columns and labels:
Type in all cases: in vivo
[1] = tested on: Diamondback Moth (Plutella xylostella); assay: Diamondback moth control test (leaf piece dipping treatment); conditions: 120 h, cabbage leaf piece dipped, third instar, five days after the treatment, 25° C., read-out: insect mortality rate
Protocol: (§1) The insect mortality rate and the feeding damage prevention effect shown in the Biological Test Examples were calculated based on the following expression.
Biological Test Example 3: Diamondback Moth (Plutella xylostella) Control Test (Leaf Piece Dipping Treatment)
(§2) A cabbage leaf was cut into a piece having a diameter of 5.0 cm, and this cabbage leaf piece was immersed in 20 mL of a diluted solution of the test compound diluted to 200 ppm, and air-dried. After air-drying, the cabbage leaf piece was placed in a plastic cup, 10 third instar diamondback moth nymphs were released thereinto, the cup was covered with a lid, and the nymphs were reared in a constant temperature chamber at 25° C.

[2] = tested on: Tobacco Cutworm (Spodoptera litura); assay: Tobacco cutworm control test (leaf piece dipping treatment); conditions: 120 h, cabbage leaf piece dipped, second instar larvae, five days after the treatment, 25° C., read-out: insect mortality rate
Protocol: as §1
Biological Test Example 5: Tobacco Cutworm (Spodoptera litura) Control Test (Leaf Piece Dipping Treatment)
as §2, with “5 second” for “10 third”, “tobacco cutworm larvae” for “diamondback moth nymphs”, “larvae” for “nymphs”

[3] = tested on: Cotton Aphid (Aphis gossypii); assay: Cotton aphid control test (leaf piece application treatment); conditions: 120 h, sprayed on cucumber leaf piece, nymphs, five days after the treatment, 25° C., read-out: insect mortality rate
Protocol: as §1
Biological Test Example 1: Cotton Aphid (Aphis gossypii) Control Test (Leaf Piece Application Treatment)
A cucumber leaf was cut into a piece having a diameter of 3.5 cm and placed on absorbent cotton moistened with water. Two adult cotton aphids were released thereon, and allowed to lay nymphs for 24 hours, and then the adults were removed. 2 mL of a diluted solution of the test compound diluted to 200 ppm was applied onto the resulting cucumber leaf by using an spray tower. The cucumber leaf was air-dried and then placed in a plastic cup together with the absorbent cotton, the cup was covered with a lid, and the nymphs were reared in a constant temperature chamber at 25° C.

| Structure (SMILES) | mortality at 200 ppm [1] | mortality at 200 ppm [2] | mortality at 200 ppm [3] |
| --- | --- | --- | --- |
| CCS(=O)(=O)c1cc(-c2ccc(F)cc2)cnc1C1=NC(=COC)C(=O)N1c1ccc(C(F)(F)F)cn1 [Compound 34] | ≥ 80% |  |  |
| CCS(=O)(=O)c1cc(-c2ccc(F)cc2)cnc1C1=NOCN1c1ccc(C(F)(F)F)cn1 [Compound 27, 3-(3-(ethylsulfonyl)-5-(4-fluorophenyl)pyridin-2-yl)-4-(5-(trifluoromethyl)pyridin-2-yl)-4,5-dihydro-1,2,4-oxadiazole] | ≥ 80% | ≥ 80% |  |
| CN(C)S(=O)(=O)c1cc(-c2ccc(OC(F)(F)F)cc2)cnc1-c1noc(=O)n1-c1ccc(C(F)(F)F)cn1 [Compound 195, N,N-dimethyl-2-(5-oxo-4-(5-(trifluoromethyl)pyridin-2-yl)-4,5-dihydro-1,2,4-oxadiazol-3-yl)-5-(4-(trifluoromethoxy)phenyl)pyridine-3-sulfonamide] | ≥ 80% | ≥ 80% |  |
| CCS(=O)(=O)c1cc(-c2ccc(F)cc2)cnc1-c1noc(=O)n1-c1ccc(C(F)(F)F)cn1 [Compound 2, 3-(3-(ethylsulfonyl)-5-(4-fluorophenyl)pyridin-2-yl)-4-(5-(trifluoromethyl)pyridin-2-yl)-1,2,4-oxadiazol-5(4H)-one] | ≥ 80% | ≥ 80% | ≥ 80% |
| CCS(=O)(=O)c1cc(-c2ccc(OC(F)(F)F)cc2)cnc1-c1noc(=O)n1-c1ccc(C(F)(F)F)cn1 [Compound 4, 3-(3-(ethylsulfonyl)-5-(4-(trifluoromethoxy)phenyl)pyridin-2-yl)-4-(5-(trifluoromethyl)pyridin-2-yl)-1,2,4-oxadiazol-5(4H)-one] | ≥ 80% | ≥ 80% | ≥ 80% |
| CCS(=O)(=O)c1cc(-c2ccc(F)cc2)cnc1-c1noc(=S)n1-c1ccc(C(F)(F)F)cn1 [Compound 18, 3-(3-(ethylsulfonyl)-5-(4-fluorophenyl)pyridin-2-yl)-4-(5-(trifluoromethyl)pyridin-2-yl)-1,2,4-oxadiazol-5(4H)-thione] | ≥ 80% | ≥ 80% | ≥ 80% |
| CCS(=O)(=O)c1cc(-c2ccc(F)cc2)cnc1C1=NOCCN1c1ccc(C(F)(F)F)cn1 [Compound 29, 3-(3-(ethylsulfonyl)-5-(4-fluorophenyl)pyridin-2-yl)-4-(5-(trifluoromethyl)pyridin-2-yl)-5,6-dihydro-4H-1,2,4-oxadiazine] | ≥ 80% | ≥ 80% | ≥ 80% |
